Results taken from patent publication US9107415B2, “2-(substituted-phenyl)-cyclopentane-1,3-dione compounds, and derivatives thereof” (Syngenta Limited, priority 2011, dated 2015).

Key:
Assay type in all cases: in vivo
Poa annua (POAAN) = test: Biological Example 4A (previously-formulated compounds) post-emergence herbicidal activity on grassy weeds; details: 14 DAA, EC formulation, mean of two
Experimental: (§1) Seeds of a variety of test species are sown in standard soil in pots. After cultivation for 14 days under controlled conditions in a glasshouse (at 22/16°C., day/night; 16 hours light; 65% humidity), the plants are sprayed with the test compounds. The test plants are then grown on under controlled conditions in the glasshouse (at 22/16°C., day/night; 16 hours light; 65% humidity) and are watered twice daily. After 14 days the test is evaluated visually (100%=total damage to plant; 0%=no damage to plant). Post-emergence herbicidal activity (phytotoxicity) data, on certain grassy monocotyledonous weeds and cereal crops in a glasshouse, are measured 14 days after application of the herbicide (14 DAA), inter alia for post-emergence application rates of 30 or 60 g/ha of the test herbicide, with or without 50 g/ha of cloquintocet-mexyl safener applied at substantially the same time as the herbicide.
(§2) Herbicidal activity (phytotoxicity) is evaluated visually, and an assessed percentage phytotoxicity score is given for each herbicidal application on each plant species (with 100%=total damage to plant; 0%=no damage to plant). Two repetitions are made for each experiment and the mean herbicidal activity (phytotoxicity) data is reported.
(§3) Biological Example 4A is used on previously-formulated compounds, typically compounds previously formulated as an emulsifiable concentrates (EC), wherein the EC contains the herbicidal compound under test dissolved in one or more organic solvents, and wherein the EC also contains one or more surfactants or emulsifiers. In the test method, the EC containing the herbicide (plus a cloquintocet-mexyl formulation if this is also present) is generally diluted with water to form an emulsion, and the resulting emulsion is sprayed onto the emerged weed and/or crop plants.
(§4) For the testing of Compounds A-5 and A-6, each of these compounds was separately formulated into an emulsifiable concentrate containing 10% w/w of the herbicidal compound, 9% w/w of castor oil ethoxylate (an emulsifier, present as Emulsogen™EL360), 6% w/w of calcium dodecylbenzenesulfonate (linear) (an emulsifier, present as Nansa™EVM 63B), 3% w/w of tristyrylphenol ethoxylate having 16 moles of ethoxylation per mole of molecule (an emulsifier, present as Soprophor™BSU), 10% w/w of benzyl benzoate (as solvent), 20% w/w of 1-methyl-2-pyrrolidone (as solvent), and the remainder of N-octyl-2-pyrrolidone (as solvent). The solvents and surfactants/emulsifiers were first mixed together, to form a “blank” EC, and the herbicidal compound was then added to and dissolved in this solvent and emulsifier mixture to prepare the emulsifiable concentrate, to give an EC formulation/composition containing approximately 100 g/L of active herbicidal compound.
(§5) In the tests of Compounds A-5 and A-6, the cloquintocet-mexyl was pre-formulated as a formulation/composition containing 10% w/w cloquintocet-mexyl, 6% w/w Emulsogen™ EL360 (as emulsifier), 4% w/w Nansa™EVM 63B (as wetting agent), 1% w/w Drapex™39 (epoxidised soybean oil), 20% w/w 1-methyl-2-pyrrolidone (as solvent), and the remainder as Solvesso™200ND (a mixture of heavy aromatic hydrocarbons, as a solvent).
(§6) Test plants: Avena fatua (AVEFA), Lolium multiflorum (LOLMU), Setaria viridis (SETVI), Poa annua (POAAN), Alopecurus myosuroides (ALOMY). All five of these are grassy monocotyledonous weeds.

[1] = tested on: Lolium multiflorum (LOLMU); test: as above; details: 14 DAA, EC formulation, mean of two
Experimental: as §1, §2, §3, §4, §5, §6

Setaria viridis (SETVI) = test: as above; details: 14 DAA, EC formulation, mean of two
Experimental: as §1, §2, §3, §4, §5, §6

Avena fatua (AVEFA) [2] = test: as above; details: 14 DAA, EC formulation, mean of two
Experimental: as §1, §2, §3, §4, §5, §6

[3] = tested on: Alopecurus myosuroides (ALOMY); test: as above; details: 14 DAA, EC formulation, mean of two
Experimental: as §1, §2, §3, §4, §5, §6

[4] = tested on: grassy monocotyledonous weeds such as Lolium, Alopecurus, Echinochloa and/or Avena; test: Post-emergence herbicidal activity on grassy monocotyledonous weeds, summary statements (Biological Examples 1 to 4)
Spring Wheat “Teal” = test: Biological Example 4A post-emergence phytotoxicity on cereal crops; details: 14 DAA, EC formulation, mean of two
Experimental: as §1, §2, §3, §4, §5

[5] = tested on: Spring Barley “Harrington”; test: as above; details: 14 DAA, EC formulation, mean of two
Experimental: as §1, §2, §3, §4, §5

Winter Wheat “Hereward” = test: as above; details: 14 DAA, EC formulation, mean of two
Experimental: as §1, §2, §3, §4, §5

Winter Barley “Suzuka” = test: as above; details: 14 DAA, EC formulation, mean of two
Experimental: as §1, §2, §3, §4, §5

Avena fatua (AVEFA) [6] = test: Biological Example 1 glasshouse screen, post-emergence herbicidal activity; details: 312 h, read-out: AVEFA percentage phytotoxicity
Outline: (§7)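 Pots in a glasshouse (24/16°C day/night, 14 h light, 65% humidity) were sprayed one day after sowing (pre-emergence) or after 8 days (post-emergence), using acetone/water (50:50) with 0.5% Tween 20. Phytotoxicity was scored visually as % damage (0-100) 13 days after application.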

Lolium perenne (LOLPE) = test: as above; details: 312 h, read-out: LOLPE percentage phytotoxicity
Outline: as §7

[7] = tested on: Echinochloa crus-galli (ECHCG); test: as above; details: 312 h, read-out: ECHCG percentage phytotoxicity
Outline: (§8)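 Pot-grown seedlings sprayed 1 day after sowing (pre-emergence) or after 8 days' growth (post-emergence) with active ingredient in acetone/water (50:50) plus 0.5% Tween 20; glasshouse at 24/16°C day/night, 14 h light, 65% humidity. Visual % phytotoxicity (0 = no damage, 100 = total damage) scored 13 days after application.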

[8] = tested on: Alopecurus myosuroides (ALOMY); test: as above; details: 312 h, read-out: ALOMY percentage phytotoxicity
Outline: as §8

[9] = 30 g/ha, cloquintocet-mexyl 0 g/ha
[10] = 30 g/ha, cloquintocet-mexyl 50 g/ha
[11] = 60 g/ha, cloquintocet-mexyl 0 g/ha
[12] = 60 g/ha, cloquintocet-mexyl 50 g/ha

## CC#Cc1cc(C)c(C2C(=O)C[C@@H](Cc3ccccn3)C2=O)c(C)c1 (some centres unmarked) [Compound A-6]
Poa annua (POAAN); [9]
  POAAN % phytotoxicity: 65%
Poa annua (POAAN); [10]
  POAAN % phytotoxicity: 48%
Poa annua (POAAN); [11]
  POAAN % phytotoxicity: 94%
Poa annua (POAAN); [12]
  POAAN % phytotoxicity: 85%
[1]; [9]
  LOLMU % phytotoxicity: 100%
[1]; [10]
  LOLMU % phytotoxicity: 100%
[1]; [11]
  LOLMU % phytotoxicity: 100%
[1]; [12]
  LOLMU % phytotoxicity: 100%
Setaria viridis (SETVI); [9]
  SETVI % phytotoxicity: 100%
Setaria viridis (SETVI); [10]
  SETVI % phytotoxicity: 100%
Setaria viridis (SETVI); [11]
  SETVI % phytotoxicity: 100%
Setaria viridis (SETVI); [12]
  SETVI % phytotoxicity: 100%
Avena fatua (AVEFA) [2]; [9]
  AVEFA % phytotoxicity: 98%
Avena fatua (AVEFA) [2]; [10]
  AVEFA % phytotoxicity: 90%
Avena fatua (AVEFA) [2]; [11]
  AVEFA % phytotoxicity: 100%
Avena fatua (AVEFA) [2]; [12]
  AVEFA % phytotoxicity: 99%
[3]; [9]
  ALOMY % phytotoxicity: 100%
[3]; [10]
  ALOMY % phytotoxicity: 100%
[3]; [11]
  ALOMY % phytotoxicity: 100%
[3]; [12]
  ALOMY % phytotoxicity: 100%
[4]
  post-emergence herbicidal activity against grassy monocotyledonous weeds, in words: more potent herbicidal activity
Spring Wheat “Teal”; [9]
  Spring Wheat “Teal” phytotoxicity (%): 78%
Spring Wheat “Teal”; [10]
  Spring Wheat “Teal” phytotoxicity (%): 25%
Spring Wheat “Teal”; [11]
  Spring Wheat “Teal” phytotoxicity (%): 94%
Spring Wheat “Teal”; [12]
  Spring Wheat “Teal” phytotoxicity (%): 45%
[5]; [9]
  Spring Barley “Harrington” phytotoxicity (%): 95%
[5]; [10]
  Spring Barley “Harrington” phytotoxicity (%): 13%
[5]; [11]
  Spring Barley “Harrington” phytotoxicity (%): 98%
[5]; [12]
  Spring Barley “Harrington” phytotoxicity (%): 48%
Winter Wheat “Hereward”; [9]
  Winter Wheat “Hereward” phytotoxicity (%): 65%
Winter Wheat “Hereward”; [10]
  Winter Wheat “Hereward” phytotoxicity (%): 15%
Winter Wheat “Hereward”; [11]
  Winter Wheat “Hereward” phytotoxicity (%): 80%
Winter Wheat “Hereward”; [12]
  Winter Wheat “Hereward” phytotoxicity (%): 20%
Winter Barley “Suzuka”; [9]
  Winter Barley “Suzuka” phytotoxicity (%): 93%
Winter Barley “Suzuka”; [10]
  Winter Barley “Suzuka” phytotoxicity (%): 10%
Winter Barley “Suzuka”; [11]
  Winter Barley “Suzuka” phytotoxicity (%): 98%
Winter Barley “Suzuka”; [12]
  Winter Barley “Suzuka” phytotoxicity (%): 25%
Avena fatua (AVEFA) [6]
  pest or weed control at 250 g/ha: 100%
Lolium perenne (LOLPE)
  pest or weed control at 250 g/ha: 100%
[7]
  pest or weed control at 250 g/ha: 100%
[8]
  pest or weed control at 250 g/ha: 100%
